Test results reported in patent publication US20200253877A1, “GEMCABENE, PHARMACEUTICALLY ACCEPTABLE SALTS THEREOF, COMPOSITIONS THEREOF AND METHODS OF USE THEREFOR” (NEUROBO PHARMACEUTICALS, INC., priority 2018, published 2020).

Assays:
[1] = human, in vivo
Experimental: (§1) An open-label, two-sequence, cross-over study to assess the steady-state effects of gemcabene calcium on the single-dose pharmacokinetics (PK) of oral contraceptive tablets in healthy female subjects was conducted with 300 mg tablets containing gemcabene calcium salt hydrate Crystal Form 1 having PSD90 of 52 μm (film-coated Tablet F).
(§2) The population for this study was generally healthy, adult female subjects of childbearing potential (≥18 to ≤35 years of age). This population supports the overall objective of the study to evaluate the effect of 600 mg of gemcabene calcium salt hydrate Crystal Form 1 having PSD90 of 52 μm at steady-state on the PK of a single dose of ON 1/35 (Ortho Novum 1/35; combined ethinyl estradiol/norethindrone oral contraceptive). The primary objective of this study was to assess the effect of daily 600 mg of gemcabene calcium salt hydrate Crystal Form 1 having PSD90 of 52 μm at steady-state on the pharmacokinetics (PK) of ON 1/35. The secondary objectives of this study were to assess the safety and tolerability of daily gemcabene 600 mg in combination with a single-dose ON 1/35 and to assess the steady-state PK of 600 mg of gemcabene calcium salt hydrate Crystal Form 1 having PSD90 of 52 μm (film-coated Tablet F×2).
Throughout the study, 2 (12.5%) subjects in Treatment A; 4 (26.7%) subjects during gemcabene alone treatment of Treatment B, and 3 (20%) subjects during gemcabene with ON 1/35 treatment of Treatment B, had treatment-emergent adverse events (TEAEs). […] All TEAEs were considered to be mild or moderate in severity.

[2] = Steady-state plasma gemcabene pharmacokinetics (600 mg daily) in healthy female subjects; format: in vivo, human
Experimental: as §1
as §2, with “F×2). […]” for “F×2).”

[3] = 12-week placebo-controlled study in hypercholesterolemia patients on statins: safety and tolerability; format: in vivo; conditions: 600 mg QD, 12 weeks
Experimental: High-risk patients including some, but not all those with heterozygous familial hypercholesterolemia (HeFH) or atherosclerotic cardiovascular disease (ASCVD) on appropriate diet and stable statin therapy for at least 12 weeks and LDL-C ≥100 mg/dL (2.59 mmol/L) and triglycerides <500 mg/dL (5.65 mmol/L) were randomized into a 12-week, placebo-controlled, parallel-group, double-blind study to assess the efficacy of gemcabene calcium salt hydrate Crystal Form 1 (PSD90=52 μm) 600 mg (300-mg film-coated Tablet D×2) QD on LDL-C and other lipoproteins and hsCRP (high-sensitivity C-reactive protein). Safety and tolerability were also evaluated. The patients were stratified by high- or moderate-intensity statin therapy, with or without ezetimibe, with a target of 52 patients (26 patients on 600 mg gemcabene calcium salt hydrate Crystal Form 1 as administered by 2×film-coated Tablet D and 26 patients on placebo (“placebo”)) in each stratum. […] Mean baseline LDL-C for all patients was approximately 134 mg/dL (3.48 mmol/L) with most patients in the high-intensity statin stratum on atorvastatin and most patients in the moderate-intensity stratum on either simvastatin or atorvastatin.
33 of 54 patients (61.1%) in the film-coated Tablet D group and 24 of 51 patients (47.1%) in the placebo group who reported at least one AE during the study. […]

[4] = Aqueous solubility of gemcabene calcium salt forms over 24 hours (HPLC concentration, XRPD form); format: physicochemical; conditions: approximately 25° C.
Experimental: To each vial, approximately 3 mL to 4 mL water were added and the samples were mixed at ambient temperature (approximately 25° C.) for approximately 24 hours. […] From each vial, samples of the slurries were taken after 1, 4, and 24 hours, which were separated by centrifugation. The solids were separated by centrifugation and analyzed by XRPD for solid form and by HPLC for concentration.

[5] = Stability study of gemcabene calcium salt forms (XRPD form, HPLC/CAD purity); format: physicochemical
Experimental: The stability studies were carried out using storage conditions at a) 40° C. and 75% relative humidity (RH), b) at 80° C. and c) at ambient temperature (approximately 22° C.). After 7 days and 14 days, the samples were removed from the relevant storage conditions and initially analyzed by XRPD to identify any form changes. The samples were then analyzed by HPLC/CAD (high-performance liquid chromatography equipped with a charged aerosol detector) for purity, with all solid purity values given on a w/w % basis.

[6] = Effect of steady-state gemcabene 600 mg on single-dose pharmacokinetics of ON 1/35 (ethinyl estradiol/norethindrone) in healthy female subjects; format: in vivo, human; conditions: 600 mg daily at steady state; single dose ON 1/35
Experimental: as §1
as §2, with “F×2). […]” for “F×2).”

[7] = Solubility of gemcabene calcium salt hydrate Crystal Form 1 by solvent addition method; format: physicochemical; conditions: thermodynamic from solid
Experimental: Approximately 20 mg of gemcabene calcium Crystal Form 1 was added to 5×2 mL vials. The solubility in 5 solvents was tested using a solvent addition method. Solvents included acetone, ethanol, ethyl acetate, t-butyl methyl ether (t-BME) and water. Solvent was added in 5 volume (100 μL) aliquots until either dissolution or 2 mL in total had been added. Between each addition, samples were heated to 60° C. (40° C. for acetone and t-BME). Any solids remaining after 24 hours at ambient were analyzed by X-ray powder diffraction (XRPD).

CC(C)(CCCCOCCCCC(C)(C)C(=O)O)C(=O)O [gemcabene, 6-(5-carboxy-5-methyl-hexyloxy)-2,2-dimethyl-hexanoic acid]
subjects with a drug-related TEAE (constipation) ([1]; female): 1 subject
serious adverse events (SAEs) [1]: no serious adverse events
tolerability [1]: well tolerated
mean Cmin [2]: 102.68 µg/mL

CC(C)(CCCCOCCCCC(C)(C)C(=O)O)C(=O)O.[Ca] [6-(5-Carboxy-5-methyl-hexyloxy)-2,2-dimethylhexanoic acid calcium]
serious adverse events and deaths [3]: no serious adverse events (AEs) and no deaths
change in polymorphic form during the test period (XRPD) ([4]; slurry in water, 24 hours): no change in polymorphic form
change in concentration (HPLC) during the experiment ([4]; slurry in water, sampled 1, 4, 24 hours): small increase
solubility at 1 h ([4]; thermodynamic from solid, water, 1 h, read-out: Conc. (aqueous solubility)): 96.2 mg/mL
solubility at 4 h ([4]; thermodynamic from solid, water, 4 h, read-out: Conc. (aqueous solubility)): 98.3 mg/mL
solubility at 24 h ([4]; thermodynamic from solid, water, 24 h, read-out: Conc. (aqueous solubility)): 99.5 mg/mL
Form (XRPD) of solid in water slurry ([4]; water, 1 h): Form 1
Form (XRPD) of solid in water slurry ([4]; water, 4 h): Form 1
Form (XRPD) of solid in water slurry ([4]; water, 24 h): Form 1
change in form (XRPD) ([5]; 2-week study, 40° C./75% RH, 80° C. and ambient): No change in the form
Form (XRPD) ([5]; 40° C./75% RH, 1 Week): Form 1
Purity ([5]; 40° C./75% RH, 1 Week): 80.8%
Form (XRPD) ([5]; 40° C./75% RH, 2 Weeks): Form 1
Purity ([5]; 40° C./75% RH, 2 Weeks): 84.2%
Form (XRPD) ([5]; 80° C., 1 Week): Form 1
Purity ([5]; 80° C., 1 Week): 80.6%
Form (XRPD) ([5]; 80° C., 2 Weeks): Form 1
Purity ([5]; 80° C., 2 Weeks): 83.9%
Form (XRPD) ([5]; Ambient, 1 Week): Form 1
Purity ([5]; Ambient, 1 Week): 80.7%
Form (XRPD) ([5]; Ambient, 2 Weeks): Form 1
Purity ([5]; Ambient, 2 Weeks): 84.6%
purity (HPLC/CAD) compared to the starting form ([5]; after 2 weeks storage, all 3 storage conditions): drop in purity
Starting Purity ([5]; before storage, HPLC/CAD, w/w %): 87.5%
drug-drug interaction with ethinyl estradiol and norethindrone [6]: mild drug-drug interaction
solubility ([7]; organic solvent or mixture, Acetone, heated to 40° C. between additions): < 10 mg/mL
solubility ([7]; organic solvent or mixture, Ethanol, heated to 60° C. between additions): < 10 mg/mL
solubility ([7]; organic solvent or mixture, Ethyl Acetate, heated to 60° C. between additions): < 10 mg/mL
solubility ([7]; organic solvent or mixture, t-Butyl Methyl Ether (t-BME), heated to 40° C. between additions): < 10 mg/mL
solubility ([7]; Water, heated to 60° C. between additions): 33 mg/mL
